From patent US9753023B2, “Nanofiber grid and related methods” (Carnegie Mellon University, priority 2015, dated 2017) come the findings set out here.

Assay type in all cases: cell-based
In test [1] the test system is DBTRG-05MG glioma cells. The test can be described thus: Inside-out contractile single cell force and spreading area on nanonets. The protocol:
(§1) According to one aspect of the methods described herein, using a highly aggressive glioma model (DBTRG-05MG), the platform technology using nanonets fused in crossed patterns manufactured using the non-electrospinning STEP technique serves to quantify single cell force modulation (both inside-out and outside-in) with and without the presence of a cytoskeleton altering drug (cytochalasin D) using suspended and aligned fiber networks (nanonets) beginning to represent the aligned glioma environment. This platform technology allows to measure contractile single cell forces exerted by glioma cells attached to and migrating along the fiber axis (inside-out). Further, the force response of glioma cells attached to two parallel fibers using a probe deflecting the leading fiber (outside-in) is measured. The forces are calculated using beam deflection within the elastic limit. […] The platform technology also allows for measuring changes in cell morphology, such as shape, area, etc. This technology allows the physiologically relevant aligned fiber networks used as ultra-sensitive force (˜nanoNewtons) probes for investigating drug response and efficacy in disease models at the single cell resolution.

The subject of test [2] is DBTRG-05MG glioma cells. The test can be described thus: Outside-in force response to a probe deflecting the leading fiber on nanonets. The protocol: as §1
For test [3], the system named is C2C12 mouse myoblasts. The test can be described thus: Nanonet probe system: single-cell force evolution under cyclic sub-failure stretch with drug. As to conditions: 30-minute period; for reduction in force: cycled at 1× (one stretch per two minutes), strain rate 2 μm/s. The source says: The use of a suspended nanonet platform for measuring C2C12 mouse myoblast forces attached to fibers of three diameters (250, 400, and 800 nm) representing a wide range of structural stiffness (3-50 nN/μm) in connection with the NFM is developed to allow investigations in cell adhesion forces in response to symmetric and asymmetric external perturbation in single and cyclic modes at high magnifications in real time. The combined findings are two-fold: (i) contractility-based inside-out forces are evenly distributed at the edges of the cell, and that overall force magnitudes are dependent on fiber structural stiffness, and (ii) external perturbation in symmetric and asymmetric modes biases cell-fiber failure location, without affecting the outside-in forces of cell-fiber adhesion (FIG. 5). Further measured are forces of (i) cell-cell junctions, (ii) cyclic perturbation of single cells in presence of drugs, and (iii) cancerous single-cells transitioning from a blebbing to pseudopodial morphology.
Polymeric solutions of polystyrene (Scientific Polymer Products Inc., Ontario, N.Y., Mw: 2×10^6 g·mol^−1) dissolved in xylene (Fisher Scientific, Pittsburgh, Pa.) at 14% and 5% (w/w) were prepared. Plastic coverslips (Fisher Scientific, Pittsburgh, Pa.) were cut to hollow frames and used as substrates. Suspended and aligned polystyrene (PS) nanofibers of varying diameters, spacing and orientation were deposited onto a rotating plastic hollow frame in criss-crossed patterns using the STEP platform at room temperature and 15% relative humidity. Using a custom solvent evaporation-based fusing method, the nodes of the criss-crossed patterned nanofibers were fused to form STEP nanonets with clamped boundary conditions. […]
To further evaluate the nanonet probe system for efficacy as a drug testing platform at high magnifications and temporal resolutions, we subjected cells to varying concentrations of the rho kinase (ROCK)-inhibitor Y27632 and monitored its force evolution over the same 30-minute period. […]

Test [4] relates to C2C12 mouse myoblasts. The experiment in a line: Stress relaxation test (step strain) fitted to the standard linear solid (SLS) model. The protocol: Polymeric solutions of polystyrene (Scientific Polymer Products Inc., Ontario, N.Y., Mw: 2×10^6 g·mol^−1) dissolved in xylene (Fisher Scientific, Pittsburgh, Pa.) at 14% and 5% (w/w) were prepared. Plastic coverslips (Fisher Scientific, Pittsburgh, Pa.) were cut to hollow frames and used as substrates. Suspended and aligned polystyrene (PS) nanofibers of varying diameters, spacing and orientation were deposited onto a rotating plastic hollow frame in criss-crossed patterns using the STEP platform at room temperature and 15% relative humidity. […]
As cells experience forces, interactions between cytosol and cytoskeletal structures within their semi-permeable membrane elicit strain-rate dependent responses, but identifying physiological mechanisms for this behavior has proven difficult [Janmey, P. A., et al., J. Biol. Chem. 1994; 269:32503-13; Darling, E. M., et al., Biophys. […] Since viscoelasticity can alter the measured force at different strain rates, it is nonetheless an important parameter to qualitatively describe even without complete knowledge of the contribution of individual cellular components [Ketene, A. N., et al., Integr. […] Viscoelastic response is quantified through the classic stress relaxation test [Nagayama, K., et al., Med. Eng. […]

Entries after “also recorded” stand apart in the source; their conditions may differ.

As to `C=C1[C@@H](C)[C@H]2[C@H](Cc3ccccc3)NC(=O)[C@]23[C@H](OC(C)=O)/C=C/[C@@](C)(O)C(=O)[C@@H](C)C/C=C/[C@H]3[C@@H]1O` [cytochalasin D], in the test with DBTRG-05MG glioma cells [1], the “'inside-out' contractile forces” value is “decreasing” and the “spreading area of single glioma cells” value was “compromises the spreading area”. Besides, the “'outside-in' force response to external strain” value in the test with DBTRG-05MG glioma cells [2] is “decreasing”.

As to `C[C@@H](N)[C@H]1CC[C@H](C(=O)Nc2ccncc2)CC1` [Y27632], the figures for the reduction in force in the test on C2C12 mouse myoblasts [3] (10 μM) and in the test with C2C12 mouse myoblasts [3] (100 μM) were 38% and 57%, respectively. Also, in the test with C2C12 mouse myoblasts [3] (ROCK-inhibited cells versus cyclically-perturbed cells), the “reaching a steady-state force value” was “did not”.

`Cc1ccc2c(c1)C(=O)C1(O)CCN(c3ccccc3)C1=N2` (centres unmarked) [blebbistatin]: the “relative contributions of SLS parameters k1, k2 and η (normalized)” value with C2C12 mouse myoblasts [4] (50 μM blebbistatin, myosin-II disrupted) is “shifting in the relative contributions from k2 to η; also recorded: shift in major contribution from k2 to η”.

Regarding `COC(=O)Nc1nc2ccc(C(=O)c3cccs3)cc2[nH]1` [nocodazole], in the test with C2C12 mouse myoblasts [4] (10 μM nocodazole, microtubules depolymerized), the “relative contributions of SLS parameters k1, k2 and η (normalized)” value is “shifting in the relative contributions from k2 to η; also recorded: shift in major contribution from k2 to η”.
